Laboratory results from ChEMBL document CHEMBL1135310, “Investigation of the PDZ domain ligand binding site using chemically modified peptides” (Bioorg Med Chem Lett, 2002).
Numbered stars: 1 amine (or outer) side, 2 acyl side, 3 side chain; on linkers, the order of the positions; unused ones are H or OH. Square brackets hold non-standard residues; d marks the D form. Peptide text beside a SMILES is read from it. * marks the point of attachment. X2 = C[C@@H](O)[C@H](O)[C@H](N[*:1])C(=O)[*:2]; X1 = O=C([C@@H](N[*:1])[C@@H](O)CCO)[*:2]; NMeW = CN[C@@H](Cc1c[nH]c2ccccc12)C(=O)O; NMeI = CC[C@H](C)[C@H](NC)C(=O)O; NMeT = CN[C@H](C(=O)O)[C@@H](C)O; NMeQ = CN[C@@H](CCC(N)=O)C(=O)O; NMeV = CN[C@H](C(=O)O)C(C)C; Valol = CC(C)[C@@H](CO)N*

Key:
[1] = target: T1, Membrane-associated guanylate kinase, WW and PDZ domain-containing protein 3 (Homo sapiens, UniProt Q5TCQ9); experiment: Inhibitory concentration for MAGI-3 PDZ2 domain
T1 sequence (Q5TCQ9 whole entry): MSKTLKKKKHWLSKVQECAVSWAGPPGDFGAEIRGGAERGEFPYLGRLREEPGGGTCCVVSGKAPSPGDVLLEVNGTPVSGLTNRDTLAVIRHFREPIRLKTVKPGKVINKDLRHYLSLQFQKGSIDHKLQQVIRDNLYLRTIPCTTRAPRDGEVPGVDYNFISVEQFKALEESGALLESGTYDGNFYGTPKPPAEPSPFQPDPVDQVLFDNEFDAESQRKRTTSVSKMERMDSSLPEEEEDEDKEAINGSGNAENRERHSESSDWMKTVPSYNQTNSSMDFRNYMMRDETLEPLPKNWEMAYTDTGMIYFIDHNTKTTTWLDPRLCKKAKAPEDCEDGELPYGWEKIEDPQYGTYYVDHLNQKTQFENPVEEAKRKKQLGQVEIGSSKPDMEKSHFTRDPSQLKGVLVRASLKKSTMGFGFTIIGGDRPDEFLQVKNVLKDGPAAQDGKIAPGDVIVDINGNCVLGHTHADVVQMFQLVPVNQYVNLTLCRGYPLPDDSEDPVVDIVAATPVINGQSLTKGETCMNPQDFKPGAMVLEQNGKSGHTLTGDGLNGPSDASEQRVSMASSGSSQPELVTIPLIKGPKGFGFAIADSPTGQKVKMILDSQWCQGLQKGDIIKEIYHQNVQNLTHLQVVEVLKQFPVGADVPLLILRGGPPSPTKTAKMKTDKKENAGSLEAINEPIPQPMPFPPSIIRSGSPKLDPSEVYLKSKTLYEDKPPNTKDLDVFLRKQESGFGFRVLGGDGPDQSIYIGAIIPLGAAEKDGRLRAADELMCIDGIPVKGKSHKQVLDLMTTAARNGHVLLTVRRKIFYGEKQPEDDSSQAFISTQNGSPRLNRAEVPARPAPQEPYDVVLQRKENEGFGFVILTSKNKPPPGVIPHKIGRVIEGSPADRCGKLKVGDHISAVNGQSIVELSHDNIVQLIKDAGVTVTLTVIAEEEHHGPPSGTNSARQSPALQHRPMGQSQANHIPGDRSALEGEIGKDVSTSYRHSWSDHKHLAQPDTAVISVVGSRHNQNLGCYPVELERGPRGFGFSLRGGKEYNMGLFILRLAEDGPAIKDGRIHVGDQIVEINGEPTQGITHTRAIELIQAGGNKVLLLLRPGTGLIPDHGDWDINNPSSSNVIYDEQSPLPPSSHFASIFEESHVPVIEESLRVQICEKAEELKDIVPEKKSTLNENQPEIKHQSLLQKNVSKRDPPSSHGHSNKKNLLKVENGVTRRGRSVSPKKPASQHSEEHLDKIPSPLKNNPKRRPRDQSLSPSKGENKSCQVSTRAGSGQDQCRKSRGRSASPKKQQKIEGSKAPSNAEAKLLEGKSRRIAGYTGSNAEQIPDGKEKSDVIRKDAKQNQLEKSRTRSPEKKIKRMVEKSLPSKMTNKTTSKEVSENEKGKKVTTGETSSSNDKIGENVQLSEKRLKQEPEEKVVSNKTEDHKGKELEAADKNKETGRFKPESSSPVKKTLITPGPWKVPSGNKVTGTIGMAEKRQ

[2] = target: T1, Membrane-associated guanylate kinase, WW and PDZ domain-containing protein 3; experiment: Inhibitory concentration for MAGI-3 PDZ2 domain; ND denotes not detected
[3] = target: T1, Membrane-associated guanylate kinase, WW and PDZ domain-containing protein 3; experiment: Dissociation constant for binding to MAGI-3 PDZ2 domain

Compound	IC50 [1]	IC50 [2]	Kd [3]
CC[C@H](C)[C@H](NC(=O)[C@H](CCC(N)=O)NC(=O)[C@@H](NC(C)=O)[C@H](C)O)C(=O)N[C@@H](C(=O)N[C@@H](Cc1c[nH]c2ccccc12)C(=O)N[C@H](C(=O)NO)C(C)C)[C@H](C)O	42.1 µM		
CC[C@H](C)[C@H](NC(C)=O)C(=O)N[C@H](C(=O)N[C@@H](Cc1c[nH]c2ccccc12)C(=O)N[C@H](C(=O)O)C(C)C)[C@@H](C)O (Ac-ITWV-OH)	14.8 µM		
CC[C@H](C)[C@H](NC(=O)[C@H](CCC(N)=O)NC(=O)[C@@H](NC(C)=O)[C@@H](C)O)C(=O)N[C@H](C(=O)N[C@@H](Cc1c[nH]c2ccccc12)C(=O)N[C@H](CO)C(C)C)[C@@H](C)O (Ac-TQITW-Valol)		Not detected	
CC[C@H](C)[C@H](NC(=O)[C@H](CCC(N)=O)NC(=O)[C@@H](NC(C)=O)[C@@H](C)O)C(=O)N[C@H](C(=O)N[C@@H](Cc1c[nH]c2ccccc12)C(=O)N(C)[C@H](C(=O)O)C(C)C)[C@@H](C)O (Ac-TQITW[NMeV]-OH)		Not detected	
CC[C@H](C)[C@H](NC(=O)[C@H](CCC(N)=O)NC(=O)[C@@H](NC(C)=O)[C@@H](C)O)C(=O)N[C@H](C(=O)N(C)[C@@H](Cc1c[nH]c2ccccc12)C(=O)N[C@H](C(=O)O)C(C)C)[C@@H](C)O (Ac-TQIT[NMeW]V-OH)	10.6 µM		
CC[C@H](C)[C@H](NC(=O)[C@H](CCC(N)=O)NC(=O)[C@@H](NC(C)=O)[C@@H](C)O)C(=O)N(C)[C@H](C(=O)N[C@@H](Cc1c[nH]c2ccccc12)C(=O)N[C@H](C(=O)O)C(C)C)[C@@H](C)O (Ac-TQI[NMeT]WV-OH)	29 µM		
CC[C@H](C)[C@H](NC(=O)[C@H](CCC(N)=O)NC(=O)[C@@H](NC(C)=O)[C@@H](C)O)C(=O)N[C@H](C(=O)N[C@@H](Cc1c[nH]c2ccccc12)C(=O)N[C@H](C(=O)O)C(C)C)[C@@H](O)CCO (Ac-TQI[X1]WV-OH)		Not detected	
CC[C@H](C)[C@H](NC(=O)[C@H](CCC(N)=O)NC(=O)[C@@H](NC(C)=O)[C@@H](C)O)C(=O)N[C@H](C(=O)N[C@@H](Cc1c[nH]c2ccccc12)C(=O)N[C@H](C(=O)O)C(C)C)[C@@H](O)[C@@H](C)O (Ac-TQI[X2]WV-OH)		Not detected	
CC[C@H](C)[C@@H](C(=O)N[C@H](C(=O)N[C@@H](Cc1c[nH]c2ccccc12)C(=O)N[C@H](C(=O)O)C(C)C)[C@@H](C)O)N(C)C(=O)[C@H](CCC(N)=O)NC(=O)[C@@H](NC(C)=O)[C@@H](C)O (Ac-TQ[NMeI]TWV-OH)	20.4 µM		
CC[C@H](C)[C@H](NC(=O)[C@H](CCC(N)=O)N(C)C(=O)[C@@H](NC(C)=O)[C@@H](C)O)C(=O)N[C@H](C(=O)N[C@@H](Cc1c[nH]c2ccccc12)C(=O)N[C@H](C(=O)O)C(C)C)[C@@H](C)O (Ac-T[NMeQ]ITWV-OH)	9.8 µM		
CC[C@H](C)[C@H](NC(=O)[C@H](CCC(N)=O)NC(=O)[C@@H](NC(C)=O)[C@H](C)O)C(=O)NC(C(=O)N[C@@H](Cc1cn(C)c2ccccc12)C(=O)N[C@H](C(=O)O)C(C)C)[C@H](C)O (single isomer, unassigned)	34 µM		
CC[C@H](C)[C@H](NC(=O)[C@H](CCC(N)=O)NC(=O)[C@@H](NC(C)=O)[C@H](C)O)C(=O)NC(C(=O)N[C@@H](Cc1c[nH]c2ccccc12)C(=O)N[C@H](C(=O)O)C(C)C)[C@@H](O)C(C)(C)O (single isomer, unassigned)		Not detected	
CCC(O)[C@H](O)C(NC(=O)[C@@H](NC(=O)[C@H](CCC(N)=O)NC(=O)[C@@H](NC(C)=O)[C@@H](C)O)[C@@H](C)CC)C(=O)N[C@@H](Cc1c[nH]c2ccccc12)C(=O)N[C@H](C(=O)O)C(C)C (single isomer, unassigned)		Not detected	
CC[C@H](C)[C@H](NC(=O)[C@H](CCC(N)=O)NC(=O)[C@@H](NC(C)=O)[C@@H](C)O)C(=O)NC(C(=O)N[C@@H](Cc1c[nH]c2ccccc12)C(=O)N[C@H](C(=O)O)C(C)C)[C@@H](O)CO (single isomer, unassigned)	5.1 µM		
Ac-HTQITWV-OH	4.1 µM		
Ac-QITWV-OH	4.5 µM		
Ac-TQITWV-OH	5.2 µM		
H-PFDEDQHTQIAKV-OH [PFDEDQHTQIAKV]	14.4 µM		
H-PFDEDQHTQITKV-OH			1 µM
H-PFDEDQHTQITWV-OH	0.74 µM		0.02 µM
